“And” between values parts separate entries of the source, which are not always exact repeats. Equal values may be shown once. Read-outs that look alike come from different tables or passages of the source.

The target of one experiment is T1, MERTK (Homo sapiens, UniProt Q12866).
T1 construct: endogenous in cells; host or cells: J82 and MDXC1 (J82 xenograft explant)
T1 sequence (Q12866 21-999): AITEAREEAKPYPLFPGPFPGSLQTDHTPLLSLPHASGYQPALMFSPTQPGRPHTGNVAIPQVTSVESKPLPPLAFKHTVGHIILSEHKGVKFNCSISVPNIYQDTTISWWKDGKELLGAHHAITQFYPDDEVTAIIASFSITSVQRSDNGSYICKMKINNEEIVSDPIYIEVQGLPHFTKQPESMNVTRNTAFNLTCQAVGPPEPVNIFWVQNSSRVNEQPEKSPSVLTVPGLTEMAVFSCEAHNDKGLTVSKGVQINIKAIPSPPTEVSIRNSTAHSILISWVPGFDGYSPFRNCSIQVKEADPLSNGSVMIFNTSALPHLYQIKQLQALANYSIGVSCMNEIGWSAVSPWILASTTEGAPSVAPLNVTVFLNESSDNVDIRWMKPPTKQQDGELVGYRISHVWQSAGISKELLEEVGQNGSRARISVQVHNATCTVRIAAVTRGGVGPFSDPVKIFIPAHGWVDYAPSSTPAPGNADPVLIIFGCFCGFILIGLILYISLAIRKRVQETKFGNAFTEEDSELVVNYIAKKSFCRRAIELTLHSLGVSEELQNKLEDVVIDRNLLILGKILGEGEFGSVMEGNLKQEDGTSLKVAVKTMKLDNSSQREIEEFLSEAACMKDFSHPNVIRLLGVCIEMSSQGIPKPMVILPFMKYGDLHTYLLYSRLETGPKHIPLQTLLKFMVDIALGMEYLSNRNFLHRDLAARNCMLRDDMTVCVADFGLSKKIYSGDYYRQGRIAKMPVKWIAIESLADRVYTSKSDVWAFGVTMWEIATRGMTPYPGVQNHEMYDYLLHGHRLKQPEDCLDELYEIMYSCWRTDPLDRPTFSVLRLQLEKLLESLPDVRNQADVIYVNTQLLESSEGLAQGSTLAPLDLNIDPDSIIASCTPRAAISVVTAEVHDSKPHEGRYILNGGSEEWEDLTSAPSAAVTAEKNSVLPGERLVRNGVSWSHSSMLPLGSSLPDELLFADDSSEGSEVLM
The experiment in a line: phospho-MERTK immunoblot of J82 and MDXC1 lysates. The note with it: J82 and MDXC1 cells. It is filed as cell-based. The method, then:
For SDS-PAGE and immunoblot analysis, cultured cells were washed with cold PBS, extracted in Laemmli sample buffer, sonicated in ice-cold water with 3 cycles of 15 sec sonication followed by 1 min of cooling time. Samples were then heated for 5 min at 95°C prior to SDS-PAGE and electrophoretic transfer to nitrocellulose or PVDF membrane. Membranes were processed as described previously: membranes were blocked with 5% milk in Tris buffered saline, 0.1% Tween 20 (TBST) for 1 h at 25°C before incubating with primary antibody (1:1000 dilution) in TBST-5% milk for 16 h at 4°C. Membranes were then washed 3 times with TBST, incubated with horse radish peroxidase-labeled secondary antibody (1:10,000 dilution) for 1 h at 25°C, and washed for 3 h with TBS prior to ECL detection (Pierce/Thermo Fisher Scientific) according to the manufacturer’s supplied protocol. Imaging and quantitation of ECL light emission was performed using an Azure Biosystems c600 imaging system (Dublin, California USA).
Fig 8 Serial passage of J82 cell xenografts in mice. (A) Tumor volume (mm^3) of individual J82 (left) or MDXC1 (middle) cell xenografts in mice, or mean (+/- SD) tumor growth of both cell line xenografts (right), vs. days post implantation.

Experiment [1] has as its system Erk. The experiment in a line: Erk kinase activation (pErk/tErk) by 2-site immunoassay in J82 cells. Format: cell-based, Human. The note with it: serum-deprived J82 cells.
The test system of another experiment is 5637 cells. The experiment in a line: cell proliferation assay, 5637 cells. It is filed as cell-based, Human. To be noted: 1% FBS, 6 d.
For experiment [2], the system named is Akt. The experiment in a line: Akt kinase activation (pAkt/tAkt) by 2-site immunoassay in J82 cells. Format: cell-based, Human. To be noted: serum-deprived J82 cells.
In experiment [3] the test system is J82 cells. The experiment in a line: cell proliferation assay, J82 cells. It is filed as cell-based, Human. The note with it: 1% FBS, 6 d.
For experiment [4], the system named is FL3 cells. The experiment in a line: Transwell cell migration assay, FL3 cells. The note with it: serum deprived FL3 cells, 16 h, 37°C, cabozantinib 300 nM.
Experiment [5] deals with FL3 cells. The experiment in a line: anchorage independent growth assay, FL3 cells. The note with it: 1% FBS, cabozantinib 300 nM, with or without MST1 5 nM or CSF1 10 nM.
Another experiment addresses ROS (Homo sapiens, UniProt P08922). The experiment in a line: cell-free kinase inhibition assay, cabozantinib dose-dependence. To be noted: minimum of 3 x 10-dose curves. Format: biochemical.
The next experiment deals with NTRK2 (Homo sapiens, UniProt Q16620). The description is as above. Format: biochemical.
A further experiment deals with FGFR2 (Homo sapiens, UniProt P21802). The experiment is described as above. It is filed as biochemical. The note with it: minimum of 3 x 10-dose curves.
Another experiment has as its system TEK. To be noted: in vitro; read-out: IC50, TEK inhibition in vitro; cited from earlier work.
Another experiment has as its target FLT4 (Homo sapiens, UniProt P35916). The experiment in a line: cell-free kinase inhibition assay, cabozantinib dose-dependence. Format: biochemical. The note with it: minimum of 3 x 10-dose curves.
A further experiment concerns the target IGF1R (Homo sapiens, UniProt P08069). The description is as above. Format: biochemical.
The target in a further experiment is FGFR3 (Homo sapiens, UniProt P22607). Described as above. It is filed as biochemical.
The target of experiment [6] is T2, CSF1R (Homo sapiens, UniProt P07333). The description is as above. The note with it: minimum of 3 x 10-dose curves. It is filed as biochemical.
In a further experiment the target is ALK (Homo sapiens, UniProt Q9UM73). The experiment is described as above.
Another experiment has as its target TYRO3 (Homo sapiens, UniProt Q06418). The experiment is described as above. It is filed as biochemical. The note with it: minimum of 3 x 10-dose curves.
The next experiment has as its target NTRK3 (Homo sapiens, UniProt Q16288). The experiment is described as above. It is filed as biochemical. The note with it: minimum of 3 x 10-dose curves.
The target of a further experiment is NTRK1 (Homo sapiens, UniProt P04629). The description is as above. It is filed as biochemical. To be noted: minimum of 3 x 10-dose curves.
The next experiment addresses FGFR1 (Homo sapiens, UniProt P11362). The experiment is described as above. It is filed as biochemical.
The subject of experiment [7] is Erk. The experiment in a line: Erk kinase activation (pErk/tErk) in FL3 cells, MST1R and CSF1R pathways. It is filed as cell-based, Human. The note with it: MST1 or CSF1, cabozantinib.
Experiment [8] has as its target T2, CSF1R. On the set-up: method as in PMID 30075184. The note with it: intact cells; cited from earlier work.
The test system of experiment [9] is J82 cells. The experiment in a line: anchorage independent growth assay, J82 cells. To be noted: 1% FBS, cabozantinib 300 nM, with or without Gas6 5.7 nM.
In a further experiment the target is PDGFRA (Homo sapiens, UniProt P16234). The experiment in a line: cell-free kinase inhibition assay, cabozantinib dose-dependence. It is filed as biochemical. To be noted: minimum of 3 x 10-dose curves.
The target in a further experiment is DDR1 (Homo sapiens, UniProt Q08345). The description is as above. It is filed as biochemical. To be noted: minimum of 3 x 10-dose curves.
The next experiment addresses DDR2 (Homo sapiens, UniProt Q16832). The description is as above. It is filed as biochemical. To be noted: minimum of 3 x 10-dose curves.
The test system of experiment [10] is J82 cells. The experiment in a line: Transwell cell migration assay, J82 cells. To be noted: serum deprived J82 cells, 16 h, 37°C, Gas6 5.7 nM, cabozantinib 300 nM.
For experiment [11], the system named is FL3 cells. The experiment in a line: cell proliferation assay, FL3 cells. Format: cell-based, Human. To be noted: 1% FBS, 6 d.
Another experiment concerns the target MUSK (Homo sapiens, UniProt O15146). The experiment in a line: cell-free kinase inhibition assay, cabozantinib dose-dependence. Format: biochemical.
Experiment [12] has as its system Akt. The experiment in a line: Akt kinase activation (pAkt/tAkt) in FL3 cells, MST1R and CSF1R pathways. Format: cell-based, Human. The note with it: serum-deprived FL3 cells, MST1 (5 nM) or CSF1 (10 nM), cabozantinib 300 nM.
In a further experiment the test system is advanced BCa. The note with it: clinical trial of cabozantinib in advanced BCa patients; cited from earlier work.
Another experiment addresses T3, Axl (Homo sapiens, UniProt P30530).
T3 construct: endogenous in cells; host or cells: J82 (ATCC HTB-1)
The experiment in a line: Axl kinase activation (pAxl/tAxl) by 2-site immunoassay in J82 cells. Format: cell-based. The note with it: serum-deprived J82 cells, Gas6 5.7 nM 1 h at 37°C, added cabozantinib 300 nM, relative to untreated cells.

For a further experiment, the target named is FGFR4 (Homo sapiens, UniProt P22455). The experiment in a line: cell-free kinase inhibition assay, cabozantinib dose-dependence. It is filed as biochemical.
The mark [13] stands for this setting: exogenous Gas6 5.7 nM, 1 h at 37°C.
Where [14] appears, read: Gas6 5.7 nM 1 h, cabozantinib 300 nM.
Setting [15] is: cabozantinib 300 nM, in the presence or absence of added Gas6 (5.7 nM).

T2 sequence (P07333 20-972): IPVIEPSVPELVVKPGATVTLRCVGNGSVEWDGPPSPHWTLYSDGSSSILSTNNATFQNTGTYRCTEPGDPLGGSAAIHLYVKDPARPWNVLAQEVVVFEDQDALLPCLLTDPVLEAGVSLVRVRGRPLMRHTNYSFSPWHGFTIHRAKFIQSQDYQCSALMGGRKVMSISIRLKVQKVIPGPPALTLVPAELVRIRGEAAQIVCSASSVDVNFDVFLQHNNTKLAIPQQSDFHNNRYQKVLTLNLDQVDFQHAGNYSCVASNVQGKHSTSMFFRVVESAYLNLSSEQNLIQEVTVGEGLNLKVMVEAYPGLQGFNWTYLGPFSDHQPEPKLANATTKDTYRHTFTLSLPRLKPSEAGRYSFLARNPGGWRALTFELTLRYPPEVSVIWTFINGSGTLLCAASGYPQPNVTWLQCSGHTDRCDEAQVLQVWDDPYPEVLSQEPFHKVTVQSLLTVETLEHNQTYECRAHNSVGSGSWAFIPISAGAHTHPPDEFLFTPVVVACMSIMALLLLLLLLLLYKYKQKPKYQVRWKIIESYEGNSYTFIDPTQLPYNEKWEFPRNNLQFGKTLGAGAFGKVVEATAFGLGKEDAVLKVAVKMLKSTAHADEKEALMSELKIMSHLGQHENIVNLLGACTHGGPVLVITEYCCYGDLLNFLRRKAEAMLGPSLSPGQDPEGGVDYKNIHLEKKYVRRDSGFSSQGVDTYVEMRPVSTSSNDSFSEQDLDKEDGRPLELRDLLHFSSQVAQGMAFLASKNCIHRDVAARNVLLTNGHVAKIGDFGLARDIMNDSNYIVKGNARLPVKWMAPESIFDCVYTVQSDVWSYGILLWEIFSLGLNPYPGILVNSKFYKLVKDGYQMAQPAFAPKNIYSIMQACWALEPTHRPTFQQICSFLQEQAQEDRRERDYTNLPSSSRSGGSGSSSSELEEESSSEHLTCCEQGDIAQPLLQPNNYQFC
Sequence of TYRO3 (Q06418 41-890): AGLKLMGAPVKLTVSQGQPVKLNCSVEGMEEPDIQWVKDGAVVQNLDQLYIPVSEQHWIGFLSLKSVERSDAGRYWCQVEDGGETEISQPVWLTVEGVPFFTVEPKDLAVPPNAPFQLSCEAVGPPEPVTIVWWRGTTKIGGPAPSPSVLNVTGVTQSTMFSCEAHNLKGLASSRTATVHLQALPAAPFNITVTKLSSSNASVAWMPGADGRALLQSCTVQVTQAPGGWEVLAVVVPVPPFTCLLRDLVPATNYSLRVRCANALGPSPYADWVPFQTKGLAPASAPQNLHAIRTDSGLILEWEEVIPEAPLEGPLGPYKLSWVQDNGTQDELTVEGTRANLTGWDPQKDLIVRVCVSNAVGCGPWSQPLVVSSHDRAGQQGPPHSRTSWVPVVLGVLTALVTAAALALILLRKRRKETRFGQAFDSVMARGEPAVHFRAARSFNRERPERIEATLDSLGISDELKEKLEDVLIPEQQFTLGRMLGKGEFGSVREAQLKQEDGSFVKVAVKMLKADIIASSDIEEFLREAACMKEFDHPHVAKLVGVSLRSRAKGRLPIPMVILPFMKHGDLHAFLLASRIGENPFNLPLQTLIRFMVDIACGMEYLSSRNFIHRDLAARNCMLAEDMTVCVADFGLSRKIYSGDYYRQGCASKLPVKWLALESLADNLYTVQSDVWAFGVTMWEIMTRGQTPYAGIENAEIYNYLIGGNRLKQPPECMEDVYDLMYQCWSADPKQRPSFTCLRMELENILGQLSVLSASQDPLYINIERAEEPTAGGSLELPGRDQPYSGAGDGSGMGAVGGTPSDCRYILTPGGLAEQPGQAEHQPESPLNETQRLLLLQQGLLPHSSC
Sequence of ROS (P08922 28-2347): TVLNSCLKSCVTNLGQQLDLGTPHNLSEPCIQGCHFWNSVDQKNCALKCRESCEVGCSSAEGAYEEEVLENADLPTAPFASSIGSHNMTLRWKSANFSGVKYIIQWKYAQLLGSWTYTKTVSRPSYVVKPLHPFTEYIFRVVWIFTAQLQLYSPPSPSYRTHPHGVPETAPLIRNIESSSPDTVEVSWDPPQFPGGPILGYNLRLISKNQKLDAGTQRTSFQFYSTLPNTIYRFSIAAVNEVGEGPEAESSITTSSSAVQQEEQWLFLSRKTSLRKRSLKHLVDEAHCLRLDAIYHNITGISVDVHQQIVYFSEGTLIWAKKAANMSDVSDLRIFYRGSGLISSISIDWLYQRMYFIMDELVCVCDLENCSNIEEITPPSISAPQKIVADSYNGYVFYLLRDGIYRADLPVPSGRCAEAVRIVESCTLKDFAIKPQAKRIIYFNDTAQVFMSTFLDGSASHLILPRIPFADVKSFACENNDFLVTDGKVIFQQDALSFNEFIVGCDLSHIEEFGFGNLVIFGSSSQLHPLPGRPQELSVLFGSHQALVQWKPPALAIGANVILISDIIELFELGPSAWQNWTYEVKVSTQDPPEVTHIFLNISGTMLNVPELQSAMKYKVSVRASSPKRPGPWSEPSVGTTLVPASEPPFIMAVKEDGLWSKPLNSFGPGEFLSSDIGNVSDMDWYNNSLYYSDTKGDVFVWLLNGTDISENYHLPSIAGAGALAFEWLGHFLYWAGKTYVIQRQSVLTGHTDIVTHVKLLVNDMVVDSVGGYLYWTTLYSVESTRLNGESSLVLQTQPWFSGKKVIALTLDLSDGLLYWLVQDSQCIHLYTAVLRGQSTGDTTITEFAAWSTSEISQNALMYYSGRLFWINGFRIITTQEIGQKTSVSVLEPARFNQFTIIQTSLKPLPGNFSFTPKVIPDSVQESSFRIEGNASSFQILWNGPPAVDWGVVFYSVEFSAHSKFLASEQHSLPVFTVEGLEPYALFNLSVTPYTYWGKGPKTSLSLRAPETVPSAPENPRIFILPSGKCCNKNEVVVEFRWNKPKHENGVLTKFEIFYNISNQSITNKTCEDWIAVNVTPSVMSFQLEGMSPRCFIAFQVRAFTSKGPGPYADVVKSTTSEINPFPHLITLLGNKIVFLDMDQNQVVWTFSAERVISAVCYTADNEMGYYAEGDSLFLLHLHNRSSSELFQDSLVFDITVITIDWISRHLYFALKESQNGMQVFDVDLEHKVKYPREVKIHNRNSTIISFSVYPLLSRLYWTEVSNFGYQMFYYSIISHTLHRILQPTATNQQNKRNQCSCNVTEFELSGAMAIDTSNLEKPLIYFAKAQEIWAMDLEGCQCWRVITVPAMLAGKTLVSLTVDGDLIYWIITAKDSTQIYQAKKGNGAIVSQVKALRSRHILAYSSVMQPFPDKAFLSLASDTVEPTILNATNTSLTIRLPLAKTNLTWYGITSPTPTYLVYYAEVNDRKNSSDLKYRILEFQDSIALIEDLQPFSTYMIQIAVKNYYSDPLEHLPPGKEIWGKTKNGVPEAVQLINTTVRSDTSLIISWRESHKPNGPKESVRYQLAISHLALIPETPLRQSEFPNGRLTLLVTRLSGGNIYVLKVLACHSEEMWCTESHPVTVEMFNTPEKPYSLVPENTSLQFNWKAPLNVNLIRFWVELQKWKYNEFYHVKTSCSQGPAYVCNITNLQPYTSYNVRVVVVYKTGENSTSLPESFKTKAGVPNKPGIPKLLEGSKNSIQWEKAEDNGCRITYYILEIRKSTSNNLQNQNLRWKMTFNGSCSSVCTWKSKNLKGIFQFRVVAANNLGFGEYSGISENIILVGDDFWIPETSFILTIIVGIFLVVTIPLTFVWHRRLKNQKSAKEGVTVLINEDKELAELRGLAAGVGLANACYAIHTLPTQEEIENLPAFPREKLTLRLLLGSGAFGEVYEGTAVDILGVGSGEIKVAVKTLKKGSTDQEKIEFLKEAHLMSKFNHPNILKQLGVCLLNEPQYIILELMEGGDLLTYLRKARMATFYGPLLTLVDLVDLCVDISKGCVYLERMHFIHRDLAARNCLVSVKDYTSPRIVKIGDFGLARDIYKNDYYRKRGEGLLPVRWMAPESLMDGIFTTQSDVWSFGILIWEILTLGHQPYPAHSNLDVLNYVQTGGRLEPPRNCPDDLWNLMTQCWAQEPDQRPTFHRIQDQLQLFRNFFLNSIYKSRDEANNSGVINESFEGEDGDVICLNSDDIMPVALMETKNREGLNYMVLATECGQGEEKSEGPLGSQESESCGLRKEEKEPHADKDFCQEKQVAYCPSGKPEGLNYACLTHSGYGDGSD
Sequence of NTRK2 (Q16620 32-822): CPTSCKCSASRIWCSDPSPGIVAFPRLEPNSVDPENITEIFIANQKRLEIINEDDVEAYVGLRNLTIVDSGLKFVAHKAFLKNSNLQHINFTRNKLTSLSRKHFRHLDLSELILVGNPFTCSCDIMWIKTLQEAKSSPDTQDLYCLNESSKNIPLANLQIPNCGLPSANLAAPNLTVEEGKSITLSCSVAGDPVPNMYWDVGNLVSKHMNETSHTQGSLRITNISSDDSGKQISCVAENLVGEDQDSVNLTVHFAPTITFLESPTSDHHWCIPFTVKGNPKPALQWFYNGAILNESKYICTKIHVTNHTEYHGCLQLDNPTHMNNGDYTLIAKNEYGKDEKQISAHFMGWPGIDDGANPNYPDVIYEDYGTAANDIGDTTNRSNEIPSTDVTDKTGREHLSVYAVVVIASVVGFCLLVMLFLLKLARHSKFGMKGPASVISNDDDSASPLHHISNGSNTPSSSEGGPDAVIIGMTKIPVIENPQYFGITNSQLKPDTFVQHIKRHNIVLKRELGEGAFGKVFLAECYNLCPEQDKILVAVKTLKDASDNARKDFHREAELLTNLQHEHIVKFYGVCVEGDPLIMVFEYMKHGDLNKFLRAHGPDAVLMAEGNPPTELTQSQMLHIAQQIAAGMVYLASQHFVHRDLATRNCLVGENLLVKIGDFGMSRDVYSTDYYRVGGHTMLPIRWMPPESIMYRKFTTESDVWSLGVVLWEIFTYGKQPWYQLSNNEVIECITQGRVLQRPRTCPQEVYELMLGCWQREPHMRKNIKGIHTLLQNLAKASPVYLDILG

For the molecule “Gas6: exogenous ligand of AXL (also activates MERTK), added to cells at 5.7 nM”, the MERTK autophosphorylation entry with MERTK (exogenous Gas6 5.7 nM) is on record as “stimulated robust MERTK autophosphorylation”. In addition, the “Erk kinase activation (pErk/tErk)” value with Erk [1] (setting [13]) is listed as “significant exogenous Gas6-induced activation”. The proliferation rate result with 5637 cells (exogenously added Gas6 5.7 nM) and with J82 cells [3] (exogenously added Gas6 5.7 nM) was “significantly increased” each time. In the experiment with Akt [2] (setting [13]), the “Akt kinase activation (pAkt/tAkt)” value is “significant exogenous Gas6-induced activation”.
By IC50 is commonly meant the point on the concentration scale where inhibition reaches its midpoint. On to `COc1cc2nccc(Oc3ccc(NC(=O)C4(C(=O)Nc5ccc(F)cc5)CC4)cc3)c2cc1OC` [cabozantinib], for which the CSF1-induced migration entry with FL3 cells [4] (CSF1 10 nM) is “repressed”. Also, in the experiment with FL3 cells [4] (MST1 5 nM), the MST1-induced migration result is “repressed”. Moreover, the anchorage independent growth entry in the experiment with FL3 cells [5] and in the experiment with J82 cells [9] was “inhibited” in each case. Also, the IC50 is 43 nM and < 50 nM on ROS; under 50 nM at NTRK2; 15 nM against NTRK2 (IC50 (NTRK2), cell-free assay, minimum of 3 x 10-dose curves); over 3000 nM against FGFR2; 14 nM with TEK; 24 nM and < 50 nM on FLT4. In addition, the 50% inhibitory concentration (IC50) was over 3000 nM at IGF1R; over 3000 nM against FGFR3; 14 nM on CSF1R [6]; over 3000 nM against ALK; < 50 nM and 3 nM against TYRO3; under 150 nM on NTRK3. Moreover, the IC50 against NTRK1 is 11 nM; at FGFR1, over 3000 nM; against PDGFRA it was 414 nM; against DDR1, under 150 nM; against DDR2, under 150 nM; against MUSK, over 3000 nM. The molecule also registered an IC50 at FGFR4 of over 3000 nM. Further, the “Erk kinase activation (pErk/tErk)” value in the experiment on Erk [1] (setting [14]) was “suppression below baseline”; with Erk [7], “suppressed significantly below baseline”. The “inhibition of CSF1R activation” value on CSF1R [8] is recorded as “complete inhibition”. The Gas6-induced migration entry in the experiment on J82 cells [10] is listed as “repressed”. Moreover, the proliferation entry with FL3 cells [11] (both cabozantinib 300 nM and MST1 5 nM) is given as “reduced FL3 proliferation to the control cell growth rate, but not below”; in the experiment with 5637 cells (setting [15]) it was “significantly inhibited proliferation by these lines below the rate of untreated cells”; in the experiment with J82 cells [3] (setting [15]) it was “significantly inhibited proliferation by these lines below the rate of untreated cells”. Besides, in the experiment with FL3 cells [11] (cabozantinib alone 300 nM, relative to untreated cells), the proliferation rate entry is listed as “significantly reduced proliferation rate”. Also, the “Akt kinase activation (pAkt/tAkt)” value with Akt [12] is “suppressed significantly below baseline”; with Akt [2] (setting [14]), “suppression below baseline”. In addition, the overall response rate with advanced BCa was 33%. In addition, the “Axl kinase activation (pAxl/tAxl)” value on Axl is listed as “suppressed significantly below control levels”.
Consider `CN1CCN(Cc2ccc(Nc3ncc(Cl)c(Nc4ccccc4S(=O)(=O)N(C)C)n3)cc2)CC1` [TP0903], for which, at MERTK (TP0903 300 nM), the phospho-MERTK content result is “reduced phospho-MERTK content below that of untreated serum-deprived cells”.

(Values after article PMC8297783, “Autocrine signaling by receptor tyrosine kinases in urothelial carcinoma of the bladder” (PLoS ONE, 2021).)
